{"source": "patent US20240116990A1", "about": "“Compositions and Methods of Treatment Using CRRL 191” (Mayo Foundation for Medical Education and Research, priority 2022, published 2024)", "key": {"human GC-A": {"biological_target": "T1, human GC-A (Homo sapiens, UniProt P16066)", "T1 construct": "host or cells: HEK293", "T1 sequence (P16066 33-1061)": "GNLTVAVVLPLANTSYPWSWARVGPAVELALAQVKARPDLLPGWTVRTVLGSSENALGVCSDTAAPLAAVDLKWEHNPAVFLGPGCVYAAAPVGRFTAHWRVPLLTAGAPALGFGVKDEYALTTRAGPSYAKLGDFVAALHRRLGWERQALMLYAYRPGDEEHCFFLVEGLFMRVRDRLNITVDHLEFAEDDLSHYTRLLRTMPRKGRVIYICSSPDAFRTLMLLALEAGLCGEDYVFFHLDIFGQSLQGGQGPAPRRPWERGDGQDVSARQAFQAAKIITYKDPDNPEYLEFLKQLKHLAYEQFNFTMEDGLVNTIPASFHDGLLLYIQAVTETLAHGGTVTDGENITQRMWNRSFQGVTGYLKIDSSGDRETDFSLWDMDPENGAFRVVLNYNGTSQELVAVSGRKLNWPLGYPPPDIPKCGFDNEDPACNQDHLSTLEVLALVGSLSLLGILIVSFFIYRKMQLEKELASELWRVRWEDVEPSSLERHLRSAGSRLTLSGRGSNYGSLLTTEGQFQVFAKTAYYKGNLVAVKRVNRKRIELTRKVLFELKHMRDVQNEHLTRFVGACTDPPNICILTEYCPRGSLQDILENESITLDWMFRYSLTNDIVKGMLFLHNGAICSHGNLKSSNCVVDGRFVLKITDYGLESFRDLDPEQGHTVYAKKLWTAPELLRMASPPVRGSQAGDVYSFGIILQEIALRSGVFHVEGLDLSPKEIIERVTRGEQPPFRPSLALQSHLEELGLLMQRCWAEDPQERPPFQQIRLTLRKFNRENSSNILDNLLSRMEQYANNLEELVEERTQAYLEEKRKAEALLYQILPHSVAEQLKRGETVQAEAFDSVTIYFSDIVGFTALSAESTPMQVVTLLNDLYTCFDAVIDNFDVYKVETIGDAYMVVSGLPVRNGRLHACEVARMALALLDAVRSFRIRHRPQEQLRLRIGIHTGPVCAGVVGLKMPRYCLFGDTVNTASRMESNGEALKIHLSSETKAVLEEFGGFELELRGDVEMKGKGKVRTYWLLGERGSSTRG", "experiment": "cGMP production in HEK293 cells overexpressing GC-A, 10 min stimulation", "format": "cell-based", "set-up": "Mean (intracellular cGMP): unit not given here", "details": "for Mean (intracellular cGMP): 10 min, HEK293 GC-A cells", "experimental": "HEK293 cells stably transfected with human GC-A (cDNA clones from Origene, Rockville, MD) using Lipofectamine (Invitrogen, Grand Island, NY), are developed. Receptor overexpression is verified with immunofluorescence and western blotting. GC-A-transfected HEK293 (HEK/GCA) cells are maintained in Dulbecco's modified Eagle's medium (DMEM) supplemented with 10% fetal bovine serum (FBS), 100 U/ml penicillin, 100 U/ml streptomycin and 250 μg/ml G418.\nTwo in vitro cGMP assays are performed. Briefly, HEK/GCA cells are seeded in 48-well plates and cultured overnight to 80-90% confluency. The treatment buffer used in all experiments comprises Hank's Balanced Salt Solution (HBSS), 0.1% bovine serum albumin (BSA), 2 mM HEPES, and 0.5 mM 3-isobutyl-1-methylxanthine (IBMX, a non-specific phosphodiesterase inhibitor) (Sigma, St. Louis, MO).\nAfter treatment, all cells are washed with phosphate buffered solution (PBS) once and lysed with 0.1M HCl."}, "[1]": {"biological_target": "recombinant human neprilysin (NEP) (Homo sapiens, UniProt P08473)", "sequence (P08473 whole entry)": "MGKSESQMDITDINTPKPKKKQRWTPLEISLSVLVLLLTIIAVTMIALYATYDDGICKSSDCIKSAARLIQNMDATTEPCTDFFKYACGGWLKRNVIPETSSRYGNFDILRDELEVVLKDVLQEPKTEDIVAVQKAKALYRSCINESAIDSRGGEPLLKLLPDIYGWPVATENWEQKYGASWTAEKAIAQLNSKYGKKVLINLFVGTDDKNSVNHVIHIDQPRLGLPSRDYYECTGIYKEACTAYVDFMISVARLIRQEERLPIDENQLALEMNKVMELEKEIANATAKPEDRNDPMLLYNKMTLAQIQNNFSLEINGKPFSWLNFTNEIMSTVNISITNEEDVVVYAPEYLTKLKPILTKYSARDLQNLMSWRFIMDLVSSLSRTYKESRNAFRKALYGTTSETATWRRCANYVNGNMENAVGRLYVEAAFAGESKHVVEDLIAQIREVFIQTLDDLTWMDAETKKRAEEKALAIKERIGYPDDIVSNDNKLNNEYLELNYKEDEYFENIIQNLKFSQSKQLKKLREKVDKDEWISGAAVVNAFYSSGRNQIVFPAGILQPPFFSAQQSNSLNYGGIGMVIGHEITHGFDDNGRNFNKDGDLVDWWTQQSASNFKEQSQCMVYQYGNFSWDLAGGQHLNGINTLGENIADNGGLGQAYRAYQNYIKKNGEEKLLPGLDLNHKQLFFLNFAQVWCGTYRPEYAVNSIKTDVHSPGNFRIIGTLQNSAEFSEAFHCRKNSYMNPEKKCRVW", "experiment": "In vitro neprilysin degradation assay (residual cGMP generation in HEK/GCA cells)", "details": "for original bioactivity retained: 37° C.", "experimental": "Briefly, 5 μl of 2×10^−5 M peptide is incubated with 5 μl (10 ng/μl) recombinant NEP in 90 μl Tris/0.1% BSA buffer (50 mM Tris-HCl, pH 7.5, 150 mM NaCl, 5 mM MgCl2, 0.1% BSA) at 37° C. for various lengths of time ranging from 15 min to 24 hours. Peptides for the 0-min timepoint are incubated without NEP (buffer only). After incubation for the required length of time (0-min to 24-hour), 100 μl of 0.5 N perchloric acid is added to the reaction solution to inactivate NEP and stop degradation, and 20 μl of 2.5 N NaOH is added to neutralize the solution. The neutralized reaction aliquot is added to HEK/GCA cells and the residual capability of the undegraded peptide (diluted to a final concentration 5.5×10^−8 M) to produce cGMP is measured using the same commercial cGMP ELISA kit (Enzo Life Sciences, Farmingdale, NY) as described in Example 2, following the instructions of the manufacturer."}, "[2]": {"tested_on": "Human cardiomyocytes (HCM)", "experiment": "Human cardiomyocyte real-time apoptosis analysis (staurosporine-induced, Caspase-3/7 imaging)", "format": "cell-based", "details": "0.05 μM staurosporine, 90 hours, FIG. 6", "experimental": "HCM cells are seeded in 96-well plate at approximately 80% confluency. Cells are treated with various concentrations of staurosporine (SP) to induce apoptosis. Based on the dose response curve, 0.05 μM of SP is selected to induce apoptosis in HCM.\nPlates are then transferred to a time-lapsed, live imaging system IncuCyte S3 (Essen BioScience, Ann Arbor, MI) for apoptosis monitoring every 2 hours for a total of 90 hours. All treatment groups are performed in quintuplicates and repeated twice. Images are collected using the IncuCyte S3 Live-Cell Analysis System Software (Essen Bioscience, Ann Arbor, MI), and the data are analyzed for the Green Object Area of apoptotic bodies per well."}, "[3]": {"biological_target": "T2, extracellular domain of GC-A recombinant protein (Homo sapiens, UniProt P16066)", "T2 construct": "The extracellular domain of GC-A recombinant protein with a C-terminal His-tag (MyBioSource, Inc., San Diego, CA); purchased MyBioSource, Inc., San Diego, CA", "T2 sequence (P16066 33-473 limits assumed)": "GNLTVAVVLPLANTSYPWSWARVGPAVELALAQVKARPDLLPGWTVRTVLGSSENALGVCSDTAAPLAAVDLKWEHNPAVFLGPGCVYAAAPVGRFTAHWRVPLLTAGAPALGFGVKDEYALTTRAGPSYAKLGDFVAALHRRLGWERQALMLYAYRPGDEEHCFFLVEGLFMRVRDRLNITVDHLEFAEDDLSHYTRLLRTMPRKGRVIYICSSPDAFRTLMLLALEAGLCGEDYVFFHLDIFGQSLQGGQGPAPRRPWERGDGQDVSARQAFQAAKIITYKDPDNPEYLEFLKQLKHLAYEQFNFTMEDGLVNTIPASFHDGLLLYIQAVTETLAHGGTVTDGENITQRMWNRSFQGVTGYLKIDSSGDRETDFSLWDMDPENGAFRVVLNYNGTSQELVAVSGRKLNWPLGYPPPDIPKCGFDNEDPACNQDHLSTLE", "experiment": "GC-A binding by surface plasmon resonance (SPR)", "details": "SPR binding curves, FIG. 7", "procedure": "Surface plasmon resonance (SPR) measurements are performed at 25° C. on a BI-4500 SPR instrument (Biosensing Instrument Inc., Tempe, AZ). The extracellular domain of GC-A recombinant protein with a C-terminal His-tag (MyBioSource, Inc., San Diego, CA) is immobilized onto a Ni-NTA sensor chip (Biosensing Instrument Inc., Tempe, AZ) using 400 μM nickel sulfate in de-iron water as linker, as instructed by the instrument manual. Then, 40 μg/ml of recombinant GC-A is immobilized on the Ni-NTA sensor chip. […] Data are collected as sensorgrams. Binding kinetics are calculated from sensorgrams using the BI-Data Analysis Program (Biosensing Instrument, Tempe, AZ)."}}, "note": "Bridge positions count the residues as written; N and C are the ends.", "data": [{"substance": "H-RALLTAPRSLRRSSCFGHKIDRINHVSNLGCNSFRYRITAREDKQGWA-OH (disulfide 15-31) [CRRL 191]", "values": [{"measurement": "EC50", "setting": "human GC-A", "result": 0.48, "unit": "nM"}, {"measurement": "Mean (intracellular cGMP)", "setting": "human GC-A; 10^−6 M peptide", "result": 135.48}, {"measurement": "Mean (intracellular cGMP)", "setting": "human GC-A; 10^−7 M peptide", "result": 140.84}, {"measurement": "Mean (intracellular cGMP)", "setting": "human GC-A; 10^−8 M peptide", "result": 152.04}, {"measurement": "Mean (intracellular cGMP)", "setting": "human GC-A; 10^−9 M peptide", "result": 89.94}, {"measurement": "Mean (intracellular cGMP)", "setting": "human GC-A; 10^−10 M peptide", "result": 35.57}, {"measurement": "Mean (intracellular cGMP)", "setting": "human GC-A; 10^−12 M peptide", "result": 2.57}, {"measurement": "EC50 potency compared to ANP", "setting": "human GC-A; 10 minutes of stimulation", "result": "greater potency"}, {"measurement": "resistance to degradation by neprilysin compared to ANP", "setting": "[1]; FIG. 3", "result": "highly resistant"}, {"measurement": "original bioactivity retained", "setting": "[1]; after 30 minutes of neprilysin degradation", "result": "about 90%"}, {"measurement": "original bioactivity retained", "setting": "[1]; after 6 hours of neprilysin degradation", "result": 84, "unit": "%"}, {"measurement": "cardiomyocyte apoptosis induced by SP", "setting": "[2]; 10^−6 M", "result": "greatest effect on reducing cardiomyocyte apoptosis"}, {"measurement": "cardiomyocyte apoptosis induced by SP", "setting": "[2]; 10^−8 M", "result": "reduced cardiomyocyte apoptosis"}, {"measurement": "cardiomyocyte apoptosis induced by SP", "setting": "[2]; 10^−10 M", "result": "reduced cardiomyocyte apoptosis"}, {"measurement": "binding for the GC-A receptor compared to ANP and MANP", "setting": "[3]", "result": "greater binding"}]}]}
